# Laboratory results published in patent US20200172473A1, “DUAL MODULATORS OF FARNESOID X RECEPTOR AND SOLUBLE EPOXIDE HYDROLASE” (JOHANN WOLFGANG GOETHE-UNIVERSITÄT FRANKFURT AM MAIN, priority 2017, published 2020).
# Target: T1, sEH (Mus musculus, UniProt P34914)
# T1 construct: pilot in vivo study of the compound in male wild-type C57BL6/J mice; from tissue; host or cells: male wild-type C57BL/6J mice, in vivo; read-out in plasma
# T1 sequence (P34914 1-554): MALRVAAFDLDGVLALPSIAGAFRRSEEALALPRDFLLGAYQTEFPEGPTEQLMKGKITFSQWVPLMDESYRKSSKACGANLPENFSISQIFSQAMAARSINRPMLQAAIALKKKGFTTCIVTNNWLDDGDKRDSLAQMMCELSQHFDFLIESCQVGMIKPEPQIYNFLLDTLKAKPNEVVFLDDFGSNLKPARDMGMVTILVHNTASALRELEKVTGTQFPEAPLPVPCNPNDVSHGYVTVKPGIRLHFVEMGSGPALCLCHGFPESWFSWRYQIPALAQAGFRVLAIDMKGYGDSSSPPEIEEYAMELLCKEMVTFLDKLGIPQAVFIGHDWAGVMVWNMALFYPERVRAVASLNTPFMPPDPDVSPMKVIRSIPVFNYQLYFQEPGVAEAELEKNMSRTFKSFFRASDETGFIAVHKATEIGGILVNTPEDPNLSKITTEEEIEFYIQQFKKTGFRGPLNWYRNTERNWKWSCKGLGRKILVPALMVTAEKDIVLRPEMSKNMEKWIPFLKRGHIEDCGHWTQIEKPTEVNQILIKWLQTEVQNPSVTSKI
# Assay: EET/DHET ratio in mouse plasma
# Format: in vivo
# Conditions: mice, 10 mg/kg p.o., 8 h post dose
# Protocol: To record a pharmacokinetic profile and to evaluate pharmacodynamic data concerning FXR activation and sEH inhibition in vivo, six mice received a single dose of 57 (p.o., 10 mg/kg body weight). Three additional animals served as vehicle control.
# To evaluate pharmacodynamic effects of 57, mouse plasma was analyzed for EET/DHET ratio, and FXR target gene expression was determined in mouse livers 8 hours post application (FIG. 5B). […] Expression of the PPARγ target gene fatty acid transport protein (FATP) was not affected by 57 in vivo.
# Blood and liver sampling: At six time points (15 min, 30 min, 60 min, 120 min, 240 min and 480 min after application of 57), blood (20 μl) of the six restrained and conscious mice was obtained from the lateral tail vein. For the last time-point (480 min), mice were anesthetized under isoflurane and blood (˜500 μl) was obtained by retro-orbital puncture. A part of the blood was centrifuged (6000 rpm, 10 min, +4° C.) to obtain plasma for quantification of EET/DHET ratio and stored at −80° C. until further evaluation. […]
# EET/DHET ratio analysis from mouse plasma samples (Determination of Epoxyeicosatrienoicacids (EETs) and their metabolites Dihydroxyepoxyeicosatrienoicacids (DHETs) by LCMS/MS): 8.9-EET, 11.12-EET and their dehydro-metabolites content of the extracted samples were analyzed employing liquid chromatography tandem mass spectroscopy (LC-MS/MS). […]
structure (smiles),measurement,setting,value
"CC(C)(C)c1ccc(C(=O)NCc2ccc(NS(C)(=O)=O)cc2Cl)cc1 [compound 57, 4-(tert-Butyl)-N-(2-chloro-4-(methylsulfonamido)benzyl)benzamide]","11,12-EET/11,12-DHET ratio in plasma",vehicle 0.15±0.01,0.25±0.03
same,"8,9-EET/8,9-DHET ratio in plasma",vehicle 0.40±0.03,0.63±0.03
